Experimental data from patent US20060148885A1, “Medicinal composition” (Kyowa Hakko Kogyo Co., Ltd., priority 2003, published 2006).
Counter-ions that a name gives are not always drawn.

Tested on: rats with bladder hypertrophy
Test: Inhibitory activity on detrusor overactivity: cystometry in rats with partial urethral obstruction
Assay type: in vivo, SD rats
Details: p.o., Compound (Ia) 0.01 mg/kg, tamsulosin 0.03 mg/kg; for amplitude of premicturition contractions (relative value, before administration = 100) / frequency of premicturition contractions (relative value, before administration = 100) / amplitude of micturition contractions (relative value, before administration = 100): average ± standard error; for amplitude of premicturition contractions (relative value, before administration = 100) / frequency of premicturition contractions (relative value, before administration = 100): n = 9-10; for amplitude of micturition contractions (relative value, before administration = 100): index of voiding function; for effect on micturition contractions (voiding function), in words / effect on premicturition contractions (amplitude and frequency), in words: summary of Test Example
Description: The experiment was carried out according to the method by Malmgren, et al. [J. Urol., Vol. 142, pp. 1134-1138 (1989)]. Female SD rats of 8 to 9 weeks of age (supplied by Charles River Japan) were used in the test. Five to seven animals of these rats were housed in metal cages and given commercially available chow and water ad libtum, in an animal room maintained at room temperature from 19° C. to 25° C. and humidity from 30% to 70% under illumination for 12 hours (7:00 a.m.-7:00 p.m.) per day. The rats were subjected to operation of partial urethral obstruction. Each animal was anesthetized by intraperitoneal administration of 50 mg/kg pentobarbital sodium (Tokyo Kasei), and the midline incision of the skin and muscle was made in the lower abdomen. A polyethylene tube (PE-20, Becton Dickinson) was inserted into urethra from the urethral orifice to the bladder neck. After the proximal urethra was separated from connective tissues and ligated using double suture, the polyethylene tube was removed to induce partial urethral obstruction. The incised part was sutured with a surgical silk thread. An antibiotic ampicillin (Sigma) was intramusclarly injected (150 mg/kg, once a day, for 3 days). Six weeks after the operation of the partial urethral obstruction, the rats with bladder hypertrophy were subjected to intravesical implantation of catheter. Under anesthesia with pentobarbital sodium, the bladder was exposed by an abdominal midline incision. A polyethylene tube (PE-50, Becton Dickinson), one end of which was blunted not to damage the bladder tissue, was filled with a physiological saline (Otsuka Pharmaceutical Factory) and inserted into the bladder via the bladder apex. The intravesical catheter was fixed with a surgical silk suture. The other end of the catheter was tunneled subcutaneously, drawn out from the dorsal neck, plugged and then fixed to the skin with a suture. Four to seven days after the surgery for implantation of intravesical catheter, a cystometry test was performed. The rats were housed in a Bollman cage (Natsume Seisakusho) and a three-way stopcock was connected to the intravesical catheter, one end of the stopcock was connected to a pressure transducer (Nihon Kohden) and the other end was connected to a 50-mL syringe (Terumo) set in an infusion pump (KD Scientific) for physiological saline infusion. The intravesical pressure was measured with a polygraph system (RMP-6008, Nihon Kohden) via a pressure transducer and a strain pressure amplifier (AP-621G, Nihon Kohden), and recorded on a thermal array recorder (RTA-1200, Nihon Kohden). Sixty to 90 minutes after the completion of the preparation for the measurement, a room temperature physiological saline was continuously infused into the urinary bladder for 30 minutes at a flow rate of 10 mL/h to confirm the occurrence of micturition contractions and premicturition contractions (detrusor overactivity). Thirty minutes after the cessation of the first saline infusion, the saline was again infused intravesically for 30 minutes, and this period is for determination of the data before drug administration. Compound (Ia) was suspended in a 0.5 w/v (weight/volume) % methyl cellulose solution at a concentration of 1 mg/ml. The suspension was further diluted with a 0.5 w/v % methyl cellulose solution to prepare solution for administration [solution for Compound (Ia) administration] at a concentration of 0.01 mg/ml. The solution was orally administered to the rats at a volume of 1 ml/kg. Tamsulosin hydrochloride was dissolved in a 0.5 w/v % methyl cellulose solution at a concentration of 0.03 mg/ml (solution for tamsulosin administration), and the solution was orally administered to the rats at a volume of 1 ml/kg. For investigating the effect of the combined administration, Compound (Ia) solution and the tamsulosin solution were simultaneously and orally administered to the rats, both at a volume of 1 ml/kg each. […]

Row | Compound | amplitude of premicturition contractions (relative value, before administration = 100) (After 1 hour) [%] | frequency of premicturition contractions (relative value, before administration = 100) (After 1 hour) [%] | amplitude of micturition contractions (relative value, before administration = 100) (After 1 hour) [%] | amplitude of premicturition contractions (relative value, before administration = 100) (After 3 hours) [%] | frequency of premicturition contractions (relative value, before administration = 100) (After 3 hours) [%] | amplitude of micturition contractions (relative value, before administration = 100) (After 3 hours) [%] | amplitude of premicturition contractions (relative value, before administration = 100) (After 5 hours) [%] | frequency of premicturition contractions (relative value, before administration = 100) (After 5 hours) [%] | amplitude of micturition contractions (relative value, before administration = 100) (After 5 hours) [%] | effect on micturition contractions (voiding function), in words | effect on premicturition contractions (amplitude and frequency), in words
1 | C[C@](O)(C(=O)Nc1cccc2c1C(=O)c1sccc1CS2(=O)=O)C(F)(F)F [Compound (Ia), (S)-(+)-3,3,3-trifluoro-2-hydroxy-2-methyl-N-(5,5,10-trioxo-4,10-dihydrothieno[3,2-c][1]benzothiepin-9-yl)propanamide] | 62.3 ± 7.7 | 52.3 ± 7.3 | 109.5 ± 2.2 | 62.8 ± 7.6 | 46.2 ± 8.1 | 105.5 ± 3.8 | 65.6 ± 7.5 | 42.4 ± 6.0 | 96.7 ± 2.4 | did not affect micturition contractions | inhibited premicturition contractions
2 | CCOc1ccccc1OCCN[C@H](C)Cc1ccc(OC)c(S(N)(=O)=O)c1 [Tamsulosin, Tamsulosin hydrochloride] | 62.0 ± 5.2 | 57.8 ± 7.5 | 108.5 ± 6.4 | 75.2 ± 5.5 | 73.2 ± 5.3 | 108.1 ± 6.0 | 88.3 ± 7.2 | 78.4 ± 7.0 | 104.7 ± 6.4 | did not affect micturition contractions | inhibited premicturition contractions
